The subject of one assay is phosphorylation of AKT on Ser473 as a readout of the PI3K pathway in T-47D (heterozygous PIK3CA H1047R) cells. Description: PI3K pathway activation assay, pAKT Ser473 HTRF, T-47D cells. It counts as cell-based. Particulars: Homo sapiens, T47D, 2 h, two hours of treatment. The procedure: The inhibitory activity of compounds was evaluated by measuring phosphorylation of AKT on Ser473 as a readout of the PI3K pathway using HTRF (CisBio catalog number: 64AKSPE). These studies were conducted in the T-47D (heterozygous PIK3CA H1047R) and SKBR3 (PIK3CA WT) cell lines. Cells were maintained in a 37° C. incubator at 5% CO2 in the following media: T-47D: RPMI 1640, ATCC© Modification (Gibco, A10491-01) supplemented with 10% v/v FBS (Gibco, 26140-079), 1% penicillin streptomycin (Gibco, 15140-122), and 7.4 ug/mL insulin (MilliporeSigma, I9278); SKBR3: McCoy's 5a (Modified) Medium (Gibco, 16600-082) supplemented with 10% v/v FBS (Gibco, 26140-079). Cells were seeded in 384-well plates at a density of 4,000 cells/well. Compounds dissolved in DMSO were added using a digital dispense (D300E, Tecan) 10-point serial dilution. After two hours of treatment, cells were lysed for thirty minutes and then incubated with detection reagents per HTRF kit material and manufacturer's instructions. Fluorescence signal was measured with a multimode plate reader (Envision 2105, Perkin Elmer). Fluorescent signal was normalized to background and DMSO controls to obtain percent inhibition/activity for each compound.
In general terms: In TR-FRET formats the signal depends on donor and acceptor labels being close together.
The term IC50 denotes the concentration that gives 50% inhibition. For the molecule `Cc1cc(C(C)Nc2ccccc2C(=O)O)c2nc(N3CCC(F)(F)CC3)n(C)c(=O)c2c1` (single isomer, unassigned) [Example 37, 2-((1-(2-(4,4-difluoropiperidin-1-yl)-3,6-dimethyl-4-oxo-3,4-dihydroquinazolin-8-yl)ethyl)amino)benzoic acid], the IC50 was less than 500 nM.

Turning to `Cc1cc(C(C)Nc2ccccc2C(=O)O)c2nc(N3CCC(c4ccccc4)C3)n(C)c(=O)c2c1` (single isomer, unassigned) [Example 52, 2-[1-[3,6-dimethyl-4-oxo-2-(3-phenylpyrrolidin-1-yl)quinazolin-8-yl]ethylamino]benzoic acid], the half-maximal inhibitory concentration (IC50) lay in the range of 500 to 10000 nM.

Regarding `Cc1cc(C(C)Nc2ccccc2C(=O)O)c2nc(N3CC4CC4C3)n(C)c(=O)c2c1F` (single isomer, unassigned) [Example 95, 2-((1-(2-(3-Azabicyclo[3.1.0]hexan-3-yl)-5-fluoro-3,6-dimethyl-4-oxo-3,4-dihydroquinazolin-8-yl)ethyl)amino)benzoic acid], the half-inhibitory concentration (IC50) is less than 500 nM.

As for `CONC(=O)c1ccccc1NC(C)c1cc(C)cc2c(=O)n(C)c(N3Cc4ccccc4C3)nc12` (centres unmarked) [Example 5, 2-((1-(2-(isoindolin-2-yl)-3,6-dimethyl-4-oxo-3,4-dihydroquinazolin-8-yl)ethyl)amino)-N-methoxybenzamide], the half-maximal inhibitory concentration (IC50) was 500 to 10000 nM.

`Cc1cc(C(C)Nc2ccccc2C(O)C(F)(F)F)c2nc(N3Cc4ccccc4C3)n(C)c(=O)c2c1` (centres unmarked) [Example 12, 2-(isoindolin-2-yl)-3,6-dimethyl-8-(1-((2-(2,2,2-trifluoro-1-hydroxyethyl)phenyl)amino)ethyl)quinazolin-4(3H)-one] registered an IC50 of 500 to 10000 nM.

Turning to `Cc1cc(C(C)Sc2ccccc2C(=O)O)c2nc(N3Cc4ccccc4C3)n(C)c(=O)c2c1` (centres unmarked) [Example 13, 2-((1-(2-(isoindolin-2-yl)-3,6-dimethyl-4-oxo-3,4-dihydroquinazolin-8-yl)ethyl)thio)benzoic acid], the IC50 lay within 500 to 10000 nM.

Take `Cc1cc(C(C)Nc2ccccc2C(=O)O)c2nc(N3CC4CC4C3)n(C)c(=O)c2c1C#N` (centres unmarked) [Example 14, 2-((1-(2-(3-azabicyclo[3.1.0]hexan-3-yl)-5-cyano-3,6-dimethyl-4-oxo-3,4-dihydroquinazolin-8-yl)ethyl)amino)benzoic acid]: the 50% inhibitory concentration (IC50) lay in the range of 500 to 10000 nM.

On to `CC(Nc1ccccc1C(=O)O)c1cc(C(F)(F)F)cc2c(=O)n(C)c(N3Cc4ccccc4C3)nc12` (centres unmarked) [Example 15, 2-((1-(2-(isoindolin-2-yl)-3-methyl-4-oxo-6-(trifluoromethyl)-3,4-dihydroquinazolin-8-yl)ethyl)amino)benzoic acid], for which the concentration for half-maximal inhibition (IC50) is less than 500 nM.

Turning to `CC(Nc1ccccc1C(=O)O)c1cc(C(F)(F)F)cc2c(=O)n(C)c(N3CC4CC4C3)nc12` (centres unmarked) [Example 16, 2-((1-(2-(3-azabicyclo[3.1.0]hexan-3-yl)-3-methyl-4-oxo-6-(trifluoromethyl)-3,4-dihydroquinazolin-8-yl)ethyl)amino)benzoic acid], the 50% inhibitory concentration (IC50) lay in the range of 500 to 10000 nM.

`Cc1cc(C(C)Nc2ccccc2C(=O)O)c2nc(N3CCC(C)(C)CC3)n(C)c(=O)c2c1` (centres unmarked) [Example 17, 2-((1-(2-(4,4-dimethylpiperidin-1-yl)-3,6-dimethyl-4-oxo-3,4-dihydroquinazolin-8-yl)ethyl)amino)benzoic acid] registered an IC50 of less than 500 nM.

With `Cc1cc(C(C)Nc2ccccc2C(=O)O)c2nc(N3Cc4ccccc4C3)n(-c3cccnc3)c(=O)c2c1` (centres unmarked) [Example 18, 2-((1-(2-(isoindolin-2-yl)-6-methyl-4-oxo-3-(pyridin-3-yl)-3,4-dihydroquinazolin-8-yl)ethyl)amino)benzoic acid], the IC50 was in the range of 500 to 10000 nM.

In turn, `Cc1cc(C(C)Nc2ccccc2C(=O)O)c2nc(-c3ccn[nH]3)n(C)c(=O)c2c1` (centres unmarked) [Example 25, 2-((1-(3,6-dimethyl-4-oxo-2-(1H-pyrazol-5-yl)-3,4-dihydroquinazolin-8-yl)ethyl)amino)benzoic acid] yielded a half-inhibitory concentration (IC50) of 500 to 10000 nM.

`Cc1cc(C(C)Nc2ccccc2C(=O)O)c2nc(N)n(C)c(=O)c2c1` (centres unmarked) [Example 26, 2-((1-(2-amino-3,6-dimethyl-4-oxo-3,4-dihydroquinazolin-8-yl)ethyl)amino) benzoic acid] displayed an IC50 of 500 to 10000 nM.

Regarding `COc1cccc(NC(C)c2cc(C)cc3c(=O)n(C)c(N4Cc5ccccc5C4)nc23)c1C(=O)O` (centres unmarked) [Example 29, 2-((1-(2-(isoindolin-2-yl)-3,6-dimethyl-4-oxo-3,4-dihydroquinazolin-8-yl)ethyl)amino)-6-methoxybenzoic acid], the half-maximal inhibitory concentration (IC50) fell in the range of 500 to 10000 nM.

On to `Cc1cc(C(C)Nc2ccc(C(F)(F)F)cc2C(=O)O)c2nc(N3Cc4ccccc4C3)n(C)c(=O)c2c1` (centres unmarked) [Example 30, 2-((1-(2-(isoindolin-2-yl)-3,6-dimethyl-4-oxo-3,4-dihydroquinazolin-8-yl)ethyl)amino)-5-(trifluoromethyl)benzoic acid], for which the IC50 lay within 500 to 10000 nM.

As to `Cc1cc(C(C)Nc2cc(F)ccc2C(=O)O)c2nc(N3Cc4ccccc4C3)n(C)c(=O)c2c1` (centres unmarked) [Example 32, 4-fluoro-2-((1-(2-(isoindolin-2-yl)-3,6-dimethyl-4-oxo-3,4-dihydroquinazolin-8-yl)ethyl)amino)benzoic acid], the IC50 was less than 500 nM.

Turning to `Cc1cc(C(C)Nc2ccc(Cl)cc2C(=O)O)c2nc(N3Cc4ccccc4C3)n(C)c(=O)c2c1` (centres unmarked) [Example 33, 5-chloro-2-((1-(2-(isoindolin-2-yl)-3,6-dimethyl-4-oxo-3,4-dihydroquinazolin-8-yl)ethyl)amino)benzoic acid], the IC50 was 500 to 10000 nM.

Take `Cc1cc(C(C)Nc2ncccc2C(=O)O)c2nc(N3Cc4ccccc4C3)n(C)c(=O)c2c1` (centres unmarked) [Example 36, 2-((1-(2-(isoindolin-2-yl)-3,6-dimethyl-4-oxo-3,4-dihydroquinazolin-8-yl)ethyl)amino)nicotinic acid]: the IC50 is 500 to 10000 nM.

`C=CC(=O)Nc1c(C)cc(C(C)Nc2ccccc2C(=O)O)c2nc(N3CC4CC4C3)n(C)c(=O)c12` (centres unmarked) [Example 38, 2-((1-(5-acrylamido-2-(3-azabicyclo[3.1.0]hexan-3-yl)-3,6-dimethyl-4-oxo-3,4-dihydroquinazolin-8-yl)ethyl)amino)benzoic acid] had an IC50 of 500 to 10000 nM.

For `Cc1cc(C(C)Nc2ccccc2C(=O)O)c2nc(O)n(C)c(=O)c2c1` (centres unmarked) [Example 42, 2-((1-(2-hydroxy-3,6-dimethyl-4-oxo-3,4-dihydroquinazolin-8-yl)ethyl)amino) benzoic acid], the half-inhibitory concentration (IC50) is 500 to 10000 nM.

`Cc1cc(C(C)Nc2ccccc2C(=O)O)c2nc(N3CCC(C#N)CC3)n(C)c(=O)c2c1` (centres unmarked) [Example 44, 2-((1-(2-(4-cyanopiperidin-1-yl)-3,6-dimethyl-4-oxo-3,4-dihydroquinazolin-8-yl)ethyl)amino)benzoic acid]: the IC50 was 500 to 10000 nM.

As to `Cc1cc(C(C)Nc2c(F)cccc2C(=O)O)c2nc(N3Cc4ccccc4C3)n(C)c(=O)c2c1` (centres unmarked) [Example 45, 3-fluoro-2-((1-(2-(isoindolin-2-yl)-3,6-dimethyl-4-oxo-3,4-dihydroquinazolin-8-yl)ethyl)amino)benzoic acid], the IC50 was in the range of 500 to 10000 nM.

`Cc1cc(C(Nc2ccccc2C(=O)O)C(F)(F)F)c2nc(N3CC4CC4C3)n(C)c(=O)c2c1` (centres unmarked) [Example 47, 2-[[1-[2-(3-azabicyclo[3.1.0]hexan-3-yl)-3,6-dimethyl-4-oxoquinazolin-8-yl]-2,2,2-trifluoroethyl]amino]benzoic acid] displayed a half-inhibitory concentration (IC50) of 500 to 10000 nM.

`CC(Nc1ccccc1C(=O)O)c1cc(C#N)cc2c(=O)n(C)c(N3Cc4ccccc4C3)nc12` (centres unmarked) [Example 50, 2-((1-(6-cyano-2-(isoindolin-2-yl)-3-methyl-4-oxo-3,4-dihydroquinazolin-8-yl)ethyl)amino)benzoic acid] returned an IC50 of 500 to 10000 nM.

In turn, `Cc1cc(C(C)Nc2ccccc2C(=O)O)c2nc(N3CCc4ccccc4C3)n(C)c(=O)c2c1` (centres unmarked) [Example 51, 2-[1-[2-(3,4-dihydro-1H-isoquinolin-2-yl)-3,6-dimethyl-4-oxoquinazolin-8-yl]ethylamino]benzoic acid] displayed an IC50 of 500 to 10000 nM.

Molecule `Cc1cc(C(C)Nc2ccccc2C(=O)O)c2nc(N3CCS(=O)(=O)CC3)n(C)c(=O)c2c1` (centres unmarked) [Example 56, 2-((1-(2-(1,1-dioxidothiomorpholino)-3,6-dimethyl-4-oxo-3,4-dihydroquinazolin-8-yl)ethyl)amino)benzoic acid] displayed an IC50 of 500 to 10000 nM.

Still in this assay, the particulars now being: two hours of treatment, read-out: T47D pAKT IC50.
Consider `Cc1cc(C(C)Nc2ccccc2C(=O)O)c2nc(N3CCC(c4ccccc4)C3)n(C)c(=O)c2c1` (single isomer, unassigned) [Example 53, 2-[1-[3,6-dimethyl-4-oxo-2-(3-phenylpyrrolidin-1-yl)quinazolin-8-yl]ethylamino]benzoic acid], for which the IC50 was 500 to 10000 nM.

On to `Cc1cc(C(C)Nc2ccccc2C(=O)O)c2nc(N3CC4CCC3C4)n(C)c(=O)c2c1` (single isomer, unassigned) [Example 101, 2-((1-(2-(2-Azabicyclo[2.2.1]heptan-2-yl)-3,6-dimethyl-4-oxo-3,4-dihydro-quinazolin-8-yl)ethyl)amino)benzoic acid], for which the IC50 lay within 500 to 10000 nM.

On to `Cc1cc(C(C)Nc2ccccc2C(=O)O)c2nc(N3CCC(C)(C)CC3)n(C)c(=O)c2c1` (centres unmarked) [Example 3, 2-((1-(2-(4,4-dimethylpiperidin-1-yl)-3,6-dimethyl-4-oxo-3,4-dihydroquinazolin-8-yl)ethyl)amino)benzoic acid], for which the IC50 was 500 to 10000 nM.

The record behind these values is patent publication US20240124422A1, “MUTANT PI3K-ALPHA INHIBITORS AND THEIR USE AS PHARMACEUTICALS” (Prelude Therapeutics Incorporated, priority 2022, published 2024).
